This passage reports IC50 results from patent US8957064B2, “Fused pyrimidines” (Bayer Intellectual Property GmbH, priority 2009, dated 2015).

In test [1] the target is His-tagged human recombinant kinase full-length Akt1 (Homo sapiens (Human), UniProt P31749). Briefly: Akt1 kinase assay (Akt1 TR-FRET assay, Biological Assay 1.0). The test is classed as biochemical. Particulars: 10 μM ATP, 1 μM biotinylated peptide substrate, 60 min at 22° C. In a few lines: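 Insect-cell-expressed full-length His-Akt1 (~0.05 ng/μl) preincubated 15 min with compound, then reacted 60 min at 22 °C with 10 μM ATP and 1 μM biotinylated peptide (final), pH 7.5. Phosphopeptide detected by HTRF (665/620 nm ratio). Data normalised to no-inhibitor and no-enzyme controls.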
A general note: Time-resolved FRET reads energy transfer from a long-lived donor to a nearby acceptor.

The target of test [2] is His-tagged human recombinant kinase full-length Akt2 activated by PDK1 (Homo sapiens (Human), UniProt P31751). Briefly: Akt2 kinase assay (Akt2 TR-FRET assay, Biological Assay 2.0). The test is classed as biochemical. Particulars: 10 μM ATP, 1 μM biotinylated peptide substrate, 60 min at 22° C. In a few lines: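 Compound was pre-incubated with enzyme (~0.2 ng/µl final) for 15 min at 22 °C in Tris pH 7.5, 5 mM MgCl2, then reacted 60 min with 10 µM ATP and 1 µM biotinylated peptide. Phosphopeptide was detected by TR-FRET (665/622 nm ratio). Data were normalised to no-inhibitor (0%) and no-enzyme (100%) controls.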

The term IC50 denotes the point on the concentration scale where inhibition reaches its midpoint.

Chain of His-tagged human recombinant kinase full-length Akt2 activated by PDK1 (P31751 whole entry): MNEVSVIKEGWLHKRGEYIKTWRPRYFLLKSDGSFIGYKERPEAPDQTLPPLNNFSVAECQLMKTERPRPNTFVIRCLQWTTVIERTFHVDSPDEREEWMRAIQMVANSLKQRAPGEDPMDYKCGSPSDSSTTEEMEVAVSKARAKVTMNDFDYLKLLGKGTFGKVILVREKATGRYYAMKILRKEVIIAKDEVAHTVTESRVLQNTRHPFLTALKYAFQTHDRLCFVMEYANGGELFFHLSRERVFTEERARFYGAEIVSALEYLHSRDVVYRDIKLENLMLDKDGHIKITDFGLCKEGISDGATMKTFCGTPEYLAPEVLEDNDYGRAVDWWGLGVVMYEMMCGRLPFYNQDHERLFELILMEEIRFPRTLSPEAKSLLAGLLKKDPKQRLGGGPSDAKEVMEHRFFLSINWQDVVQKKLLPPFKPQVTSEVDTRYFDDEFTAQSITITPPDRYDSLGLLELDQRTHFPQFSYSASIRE
Chain of His-tagged human recombinant kinase full-length Akt1 (P31749 whole entry): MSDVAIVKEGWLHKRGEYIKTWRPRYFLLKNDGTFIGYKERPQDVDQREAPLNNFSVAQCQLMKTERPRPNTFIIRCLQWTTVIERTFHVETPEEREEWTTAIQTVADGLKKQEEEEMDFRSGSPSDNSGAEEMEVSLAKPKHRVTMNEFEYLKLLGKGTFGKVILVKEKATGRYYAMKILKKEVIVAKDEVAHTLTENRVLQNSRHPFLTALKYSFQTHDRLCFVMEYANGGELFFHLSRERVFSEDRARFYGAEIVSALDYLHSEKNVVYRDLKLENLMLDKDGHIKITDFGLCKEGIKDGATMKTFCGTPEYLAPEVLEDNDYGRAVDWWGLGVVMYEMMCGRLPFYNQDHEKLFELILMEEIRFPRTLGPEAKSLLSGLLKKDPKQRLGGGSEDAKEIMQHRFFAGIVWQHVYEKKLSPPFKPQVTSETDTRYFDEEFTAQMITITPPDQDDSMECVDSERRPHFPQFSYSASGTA

For the molecule `CNc1c(-c2ccccc2)c(-c2ccc(CN3CC(c4n[nH]c(-c5ccccn5)n4)C3)cc2)nc2ncc(Br)n12` [Example 59.0, (3-bromo-6-phenyl-7-{4-{3-[5-(pyridine-2-yl)-1H-[1,2,4]triazole-3-yl)-azetidine-1-ylmethyl]-phenyl}-imidazo[1,2-a]pyrimidin-5-yl)-methylamine], the 50% inhibitory concentration (IC50) in test [1] was determined as 42 nM; in test [2], 128 nM.

In the case of `c1ccc(-c2cn3ccnc3nc2-c2ccc(CN3CCC(c4cnc5ccccc5n4)CC3)cc2)cc1` [Example 10.0, 2-{1-[4-(6-phenyl-imidazo[1,2-a]pyrimidin-7-yl)-benzyl]-piperidine-4-yl}-quinoxaline], the results for the IC50 in test [1] and in test [2] were 4 nM and 9 nM, respectively.

As for `CCc1cnn2cc(-c3ccccc3)c(-c3ccc(CN4CC(c5n[nH]c(-c6cccc(C)n6)n5)C4)cc3)nc12` [Example 42.0, 3-ethyl-5-(4-{3-[5-(6-methyl-pyridin-2-yl)-1H-[1,2,4]triazol-3-yl]-azetidin-1-ylmethyl}-phenyl)-6-phenyl-pyrazolo[1,5-a]pyrimidine], the IC50 is 5 nM in test [1] and 19 nM in test [2].

`Cc1cn2c(NC(C)C)c(-c3ccccc3)c(-c3ccc(CN4CC(c5n[nH]c(-c6ccccn6)n5)C4)cc3)nc2n1` [Example 64.0, isopropyl-(2-methyl-6-phenyl-7-{4-{3-[5-(pyridine-2-yl)-1H-[1,2,4]triazole-3-yl)-azetidine-1-ylmethyl]-phenyl}-imidazo[1,2-a]pyrimidin-5-yl)-amine]: the values for the concentration for half-maximal inhibition (IC50) in test [1] and in test [2] were 30 nM and 39 nM, respectively.

On to `Cc1cn2cc(-c3ccccc3)c(-c3ccc(CN4CCC(c5cnc6ccccc6n5)CC4)cc3)nc2n1` [Example 37.0, 2-{1-[4-(2-methyl-6-phenyl-imidazo[1,2-a]pyrimidin-7-yl)benzyl]-piperidine-4-yl}-quinoxaline], for which the IC50 in test [1] turned out to be 77 nM; in test [2], 256 nM.

For `CNc1c(-c2ccccc2)c(-c2ccc(CN3CC(c4n[nH]c(-c5ccccn5)n4)C3)cc2)nc2nc(C)cn12` [Example 60.0, methyl-(2-methyl-6-phenyl-7-{4-{3-[5-(pyridine-2-yl)-1H-[1,2,4]triazole-3-yl)-azetidine-1-ylmethyl]-phenyl}-imidazo[1,2-a]pyrimidin-5-yl)-amine], the results for the IC50 in test [1] and in test [2] were 16 nM and 55 nM, respectively.

As for `CSc1nc2nc(-c3ccc(CN4CCC(c5n[nH]c(-c6ncccn6)n5)CC4)cc3)c(-c3ccccc3)cn2n1` [Example 72.2, 2-methylsulfanyl-6-phenyl-5-{4-[4-(5-pyrimidin-2-yl-1H-[1,2,4]triazol-3-yl)-piperidin-1-ylmethyl]-phenyl}-[1,2,4]triazolo[1,5-a]pyrimidine], the IC50 in test [1] amounted to 77 nM; in test [2] it was 222 nM.

Take `Cc1nc2nc(-c3ccc(CN4CCC(c5cnc6ccccc6n5)CC4)cc3)c(-c3ccccc3)cn2n1` [Example 24.1, 2-{1-[4-(2-methyl-6-phenyl-[1,2,4]triazolo[1,5-a]pyrimidin-5-yl)-benzyl]-piperidin-4-yl}-quinoxaline]: the IC50 in test [1] stood at 4370 nM; in test [2], 9880 nM.

In the case of `COc1nn2cc(-c3c(F)cccc3F)c(-c3ccc(CN4CCC(c5n[nH]c(-c6ccccn6)n5)CC4)cc3)nc2c1CO` [Example 63.3, (6-(2,6-difluorophenyl)-2-methoxy-5-{4-[4-(5-pyridine-2-yl-1H-[1,2,4]triazole-3-yl)-piperidine-1-ylmethyl]-phenyl}-pyrazolo[1,5-a]pyrimidin-3-yl)-methanol], the IC50 in test [1] was 10 nM; in test [2] it was 97 nM.

For the molecule `Cc1nc2nc(-c3ccc(CN4CCC(c5nc6cccnc6[nH]5)CC4)cc3)c(-c3ccccc3)cn2n1` [Example 23.0, 5-{4-[4-(3H-imidazo[4,5-b]pyridin-2-yl)-piperidin-1-ylmethyl]-phenyl}-2-methyl-6-phenyl-[1,2,4]triazolo[1,5-a]pyrimidine], the IC50 in test [1] worked out at 315 nM; in test [2], 759 nM.

For `OCc1cn2cc(-c3ccccc3)c(-c3ccc(CN4CC(c5n[nH]c(-c6ccccn6)n5)C4)cc3)nc2n1` [Example 75.0], the results for the IC50 in test [1] and in test [2] were 72 nM and 124 nM, respectively.

As to `CC(C)c1nc2nc(-c3ccc(CN4CC(c5n[nH]c(-c6ccccn6)n5)C4)cc3)c(-c3ccccc3)cn2n1` [Example 29.0], the IC50 in test [1] is 84 nM; in test [2] it was 35 nM.

On to `COC(=O)c1cnn2cc(-c3c(F)cccc3F)c(-c3ccc(CN4CCC(c5n[nH]c(-c6cccc(C)n6)n5)CC4)cc3)nc12` [Example 48.0, 6-(2,6-difluorophenyl)-5-(4-{4-[5-(6-methylpyridine-2-yl)-1H-[1,2,4]triazole-3-yl]-piperidine-1-ylmethyl}-phenyl)-pyrazolo[1,5-a]pyrimidine-3-carboxylic acid methyl ester], for which the concentration for half-maximal inhibition (IC50) in test [1] turned out to be 7 nM; in test [2], 82 nM.

In the case of `Fc1ccc2nc(C3CCN(Cc4ccc(-c5nc6ccnn6cc5-c5ccccc5)cc4)CC3)[nH]c2c1` [Example 18.0, 5-{4-[4-(6-fluoro-1H-benzimidazol-2-yl)-piperidin-1-ylmethyl]-phenyl}-6-phenyl-pyrazolo[1,5-a]pyrimidine], the IC50 in test [1] stood at 42 nM; in test [2] it was 1090 nM.

With `Clc1cnc2nc(-c3ccc(CN4CC(c5nnc(-c6ccccn6)[nH]5)C4)cc3)c(-c3ccccc3)cn12` [Example 5.0, 3-Chloro-6-phenyl-7-(4-{[3-(5-pyridin-2-yl-1,2,4-triazol-3-yl)azetidin-1-yl]methyl}phenyl)imidazo[1,2-a]pyrimidine], the values for the IC50 in test [1] and in test [2] were 6 nM and 11 nM, respectively.

In the case of `Cc1nc2nc(-c3ccc(CN4CCC(c5nc6ccncc6[nH]5)CC4)cc3)c(-c3ccccc3)cn2n1` [Example 14.0, 5-{4-[4-(3H-imidazo[4,5-c]pyridin-2-yl)-piperidin-1-ylmethyl]-phenyl}-2-methyl-6-phenyl-[1,2,4]triazolo[1,5-a]pyrimidine], the IC50 in test [1] is 3000 nM; in test [2] it was 5840 nM.

Regarding `Cc1nc2nc(-c3ccc(CN4CC(c5nnc(-c6ccccn6)[nH]5)C4)cc3)c(-c3ccccc3)cn2n1` [Example 2.0, 2-methyl-6-phenyl-5-(4-{[3-(5-pyridin-2-yl-1,2,4-triazol-3-yl)azetidin-1-yl]methyl}phenyl)[1,2,4]triazolo[1,5-a]pyrimidine], the IC50 is 23 nM in test [1] and 65 nM in test [2].

Turning to `COC(=O)c1cnn2cc(-c3c(F)cccc3F)c(-c3ccc(CN4CC(c5n[nH]c(-c6ccccn6)n5)C4)cc3)nc12` [Example 28.0, 6-(2,6-difluorophenyl)-5-(4-{3-[5-(pyridine-2-yl)-1H-[1,2,4]triazole-3-yl]-azetidine-1-ylmethyl}-phenyl)-pyrazolo[1,5-a]pyrimidine-3-carboxylic acid methyl ester], the 50% inhibitory concentration (IC50) in test [1] was 14 nM; in test [2], 761 nM.

As to `Cc1nc2nc(-c3ccc(CN4CCC(c5n[nH]c(-c6ccccn6)n5)CC4)cc3)c(-c3cccc(F)c3)cn2n1` [Example 49.1, 6-(3-fluorophenyl)-2-methyl-5-{4-[4-(5-pyridine-2-yl)-1H-[1,2,4]triazole-3-yl)-piperidine-1-ylmethyl]-phenyl]-[1,2,4]triazolo[1,5-a]pyrimidine formiate], the results for the 50% inhibitory concentration (IC50) in test [1] and in test [2] were 28 nM and 129 nM, respectively.

Consider `CSc1nc2nc(-c3ccc(CN4CC(c5n[nH]c(-c6cccc(C)n6)n5)C4)cc3)c(-c3ccccc3)cn2n1` [Example 71.0, 5-(4-{3-[5-(6-methyl-pyridin-2-yl)-1H-[1,2,4]triazol-3-yl]-azetidin-1-ylmethyl}-phenyl)-2-methylsulfanyl-6-phenyl-[1,2,4]triazolo[1,5-a]pyrimidine], for which the IC50 in test [1] was 5 nM; in test [2] it was 4 nM.

Consider `COC(=O)c1cnn2cc(-c3c(F)cccc3F)c(-c3ccc(CN4CCC(c5n[nH]c(-c6ccccn6)n5)CC4)cc3)nc12` [Example 48.1, 6-(2,6-difluorophenyl)-5-(4-{4-[5-(pyridine-2-yl)-1H-[1,2,4]triazole-3-yl]-piperidine-1-ylmethyl}-phenyl)-pyrazolo[1,5-a]pyrimidine-3-carboxylic acid methyl ester], for which the IC50 in test [1] amounted to 5 nM; in test [2], 203 nM.

As to `c1ccc(-c2cn3nc(C4CC4)nc3nc2-c2ccc(CN3CCC(c4cnc5ccccc5n4)CC3)cc2)cc1` [Example 40.0, 2-{1-[4-(2-cyclopropyl-6-phenyl-[1,2,4]triazolo[1,5-a]pyrimidin-5-yl)-benzyl]-piperidine-4-yl}-quinoxaline], the IC50 came out at 247 nM in test [1] and 273 nM in test [2].

In the case of `Cc1cccc(-c2nc(C3CCN(Cc4ccc(-c5nc6nc(C7CC7)nn6cc5-c5ccc(F)cc5)cc4)CC3)n[nH]2)n1` [Example 51.0, 2-cyclopropyl-6-(4-fluorophenyl)-5-(4-{4-[5-(6-methylpyridine-2-yl)-1H-[1,2,4]triazole-3-yl]-piperidine-1-ylmethyl}-phenyl)-[1,2,4]triazolo[1,5-a]pyrimidine], the IC50 in test [1] amounted to 41 nM; in test [2], 46 nM.

On to `Cc1nc2nc(-c3ccc(CN4CCC(c5n[nH]c(-c6cnccn6)n5)CC4)cc3)c(-c3ccc(F)cc3F)cn2n1` [Example 50.2, 6-(2,4-difluorophenyl)-2-methyl-5-[4-{4-(5-pyrazine-2-yl-1H-[1,2,4]triazole-3-yl)-piperidine-1-ylmethyl]-phenyl}-[1,2,4]triazolo[1,5-a]pyrimidine], for which the IC50 was determined as 355 nM in test [1] and 1100 nM in test [2].
